Patent US12421276B2 (priority 2016, dated 2025)
Where “and” joins values, the source holds several entries; their conditions need not be identical. Equal values may be shown once. Read-outs that look alike come from different tables or passages of the source. One block for each molecule: values may come before it.

Legend:
[1] = Plasma stability study, human plasma; assay type: in vitro ADME; conditions: human, plasma
Procedure: (§1) Human and rat plasma (K2 EDTA) were obtained from Bioreclamation.
(§2) Compounds were dissolved as 0.3 mM DMSO stocks. Compounds were transferred to the plasma at 1 μM on a 96-well deep well plate. After mixing, samples were transferred to several 96-well plates (25 μL/well), and incubated at 37° C. The extent of metabolism was calculated as the disappearance of the test compound, compared to the 0-min control reaction incubations. Propantheline was included as a positive control to verify assay performance.
(§3) At each of the time points, 150 μL of quench solution (50% acetonitrile, 50% methanol with 0.05% formic acid) with internal standard (bucetin for positive ESI mode and warfarin for negative ESI mode) was transferred to each well. Plates were sealed and centrifuged at 4° C. for 15 minutes at 4000 rpm. The supernatant was transferred to fresh plates for LC/MS/MS analysis.
(§4) Elution conditions are detailed in the table below.
(§5) Initial rates of the clearance of test compounds were calculated using linear regression of semi-log plot of % remaining of compounds versus time. The elimination rate constant (equals to −slope) of the linear regression was then used to determine t½ values.

[2] = Plasma stability study, rat plasma; assay type: in vitro ADME; conditions: rat, plasma
Procedure: as §1, §2, §3, §4, §5

[3] = tested on: Caco-2 cells; experiment: Caco-2 permeability study with or without P-gp inhibitor GF120918; conditions: for Abs. Quotient: (Papp A-B with inhibitor − without inhibitor)/Papp A-B with inhibitor; for Caco-2 Cells Permeability Recovery Rate: 1 hr, pH 7.4
[4] = Metabolic stability in simulated intestinal fluid (SIF), pH 6.8, with or without pancreatin; assay type: in vitro ADME; conditions: 5 μM, 37° C.
Procedure: (§6) Metabolic Stability in SIF and SGF (Simulated Intestinal and Gastric Fluid)
Buffer 3=SIF without enzyme
Buffer 4=SIF with 1% pancreatin
(§7) SIF was prepared freshly with 8.7 mM NaOH, 28.65 mM NaH2PO4, 105.85 mM NaCl, with a final pH of 6.8. SGF was prepared freshly with 34.2 mM NaCl, with a final pH of 1.2. Enzymes such as pepsin or pancreatin were added to some buffers. Human and rat plasma (K2 EDTA) were purchased from BioreclamationIVT.
(§8) Compounds were dissolved as 1.5 mM DMSO stocks. Compounds were transferred to SIF, SGF, or plasma at 5 μM on a 96-well deep well plate. After mixing, samples were transferred to several 96-well plates (25 μL/well), and incubated at 37° C. The extent of metabolism was calculated as the disappearance of the test compound, compared to the 0-min control reaction incubations. Candesartan Cilexetil and omeprazole were included as positive controls for SIF and SGF, respectively, to verify assay performance.
as §3, with “(100% acetonitrile” for “(50% acetonitrile, 50% methanol”, “0.1%” for “0.05%”
as §4, §5

[5] = Metabolic stability in simulated gastric fluid (SGF), pH 1.2, with or without pepsin; assay type: in vitro ADME; conditions: 5 μM, 37° C.
Procedure: as §6
Buffer 1=SGF without enzyme
Buffer 2=SGF with 0.32% pepsin
as §7, §8
as §3, with “(100% acetonitrile” for “(50% acetonitrile, 50% methanol”, “0.1%” for “0.05%”
as §4, §5

[6] = assay type: in vivo, rat
Procedure: • 1. Eight (8) male JVC SD rats (purchased from Charles River Lab) were monitored daily for body condition and health status during the 3-5 days acclimation period. The rats were randomly assigned into […] (n=4). • 2. […] The dosed rats were individually placed into a metabolic cage, and have access to food and water at all times. The urine from each rat was collected daily from the metabolic cages, and kept in dry ice. • 4. At predose (0 min), 5 min, 15 min, 30 min, 1 hr, 2 hr, 8 hr, and 24 hr post dosing, approximately 200 ul blood samples were collected from each rat and transferred to EDTA tubes. • 5. The blood samples in EDTA vials were centrifuged at 4° C. and 6,000 rpm for 10 minutes to generate ˜100 μl of plasma per sample. Blood samples were processed as quickly as possible and remain no longer than 2 min at room temperature and no longer than 15 minutes at 4° C. prior to processing. • 6. All samples were transferred for bioanalytic assay using LCMS

[7] = +GF120918 (10 μM), 10 μM compound
[8] = Rat, PO, 10 mg/kg equiv., n = 4, analyte: Parent (BASE STRUCTURE)
[9] = Rat, PO, 10 mg/kg equiv., n = 4, analyte: Prodrug
[10] = rat, dosed as prodrug, 10 mg/kg equivalent of Base Structure, analyte Parent (Base Structure), Average
[11] = rat, dosed as prodrug, 10 mg/kg equivalent of Base Structure, analyte Parent (Base Structure), Combined (average ± std. dev.)
[12] = rat, dosed as prodrug, 10 mg/kg equivalent of Base Structure, analyte Parent (Base Structure), individual animals, 10 mg/kg
[13] = rat, dosed as prodrug, 10 mg/kg equivalent of Base Structure, analyte Prodrug, Average
[14] = rat, dosed as prodrug, 10 mg/kg equivalent of Base Structure, analyte Prodrug, Combined (average ± std. dev.)
[15] = rat, dosed as prodrug, 10 mg/kg equivalent of Base Structure, analyte Prodrug, individual animals, 10 mg/kg

Plasma Stability Half-Life [1]: 1.46 h
Plasma Stability Half-Life [2]: 8.7 min
Abs. Quotient [3]: 0.78
Caco-2 Cells Permeability Recovery Rate [3, 7]: 104%
Caco-2 Cells Permeability Recovery Rate ([3]; −GF120918, 10 μM compound): 107%
Structure (SMILES): CCCCCC(=O)NC(Cc1ccc(OC(=O)CN2CCN(C)CC2)cc1)C(=O)NC(C(=O)NCCCCCC(N)=O)C(C)CC (stereo not drawn) [Compound A22]

Structure (SMILES): CCCCCC(=O)NC(Cc1ccc(OP(=O)(OCCN(C)C)OCCN(C)C)cc1)C(=O)NC(C(=O)NCCCCCC(N)=O)C(C)CC (stereo not drawn) [Compound A18]
SIF Stability (pH 6.8) Half-Life (min) ([4]; +Pancreatin (1%)): 39.4 min
SIF Stability (pH 6.8) 0 min ([4]; +Pancreatin (1%)): 100%
SIF Stability (pH 6.8) 60 min ([4]; +Pancreatin (1%)): 40%
SIF Stability (pH 6.8) 120 min ([4]; +Pancreatin (1%)): 12%
SIF Stability (pH 6.8) 240 min ([4]; +Pancreatin (1%)): 25%
SIF Stability (pH 6.8) Half-Life (min) ([4]; −Pancreatin): 30.2 min
SIF Stability (pH 6.8) 0 min ([4]; −Pancreatin): 100%
SIF Stability (pH 6.8) 60 min ([4]; −Pancreatin): 25%
SIF Stability (pH 6.8) 120 min ([4]; −Pancreatin): 17%
SIF Stability (pH 6.8) 240 min ([4]; −Pancreatin): 8%
SGF Stability (pH 1.2) Half-Life (min) ([5]; +Pepsin (0.32%)): 46.4 min
SGF Stability (pH 1.2) 0 min ([5]; +Pepsin (0.32%)): 100%
SGF Stability (pH 1.2) 60 min ([5]; +Pepsin (0.32%)): 52%
SGF Stability (pH 1.2) 120 min ([5]; +Pepsin (0.32%)): 17%
SGF Stability (pH 1.2) 240 min ([5]; +Pepsin (0.32%)): 18%
SGF Stability (pH 1.2) Half-Life (min) ([5]; −Pepsin): 42.6 min
SGF Stability (pH 1.2) 0 min ([5]; −Pepsin): 100%
SGF Stability (pH 1.2) 60 min ([5]; −Pepsin): 51%
SGF Stability (pH 1.2) 120 min ([5]; −Pepsin): 14%
SGF Stability (pH 1.2) 240 min ([5]; −Pepsin): 15%
AUC0-24 [6, 8]: 4.1 ± 3.8 ng·h/mL
AUC0-inf (ng · h/mL) [6, 8]: 6.8 ± 4^ ng · h/mL
Cmax [6, 8]: 3.1 ± 2.5 ng/mL
Tmax [6, 8]: 0.2 ± 0.1 h
half-life [6, 8]: 3.5 ± 2.6 h
AUC0-24 [6, 9]: 4.9 ± 2.6 ng·h/mL
Cmax [6, 9]: 3.8 ± 0.1 ng/mL
Tmax [6, 9]: 1.5 ± 0.7 h
AUC 0-inf_obs [6, 10]: 6.838 ng·h/mL
AUC 0-t [6, 10]: 4.14 ng·h/mL
AUMC 0-inf_obs [6, 10]: 46.7 ng/ml * h^2
Cl/F_obs [6, 10]: 1.944 (mg/kg)/(ng/ml)/h
Cmax [6, 10]: 3.14 ng/mL
Lambda_z [6, 10]: 0.523 h⁻¹
MRT 0-inf_obs [6, 10]: 5.185 h
Tlag [6, 10]: 0 h
Tmax [6, 10]: 0.165 h
Vz/F_obs [6, 10]: 6.707 (mg/kg)/(ng/ml)
t1/2 [6, 10]: 3.49 h
AUC 0-inf_obs [6, 11]: 6.8 ± 4 ng·h/mL
AUC 0-t [6, 11]: 4.1 ± 3.8 ng·h/mL
AUMC 0-inf_obs [6, 11]: 46.7 ± 47.2 ng/ml * h^2
Cl/F_obs [6, 11]: 1.9 ± 1.1 (mg/kg)/(ng/ml)/h
Cmax [6, 11]: 3.1 ± 2.5 ng/mL
Lambda_z [6, 11]: 0.5 ± 0.7 h⁻¹
MRT 0-inf_obs [6, 11]: 5.2 ± 3.9 h
Tlag [6, 11]: 0 ± 0 h
Tmax [6, 11]: 0.2 ± 0.1 h
Vz/F_obs [6, 11]: 6.7 ± 3.2 (mg/kg)/(ng/ml)
t1/2 [6, 11]: 3.5 ± 2.6 h
Tlag ([6]; rat, dosed as prodrug, 10 mg/kg equivalent of Base Structure, analyte Parent (Base Structure), individual animals): 0 h
AUC 0-inf_obs [6, 12]: 3.49 ng·h/mL and 3.404 ng·h/mL and 9.232 ng·h/mL and 11.23 ng·h/mL
AUC 0-t [6, 12]: 1.664 ng·h/mL and 3.218 ng·h/mL and 1.903 ng·h/mL and 9.777 ng·h/mL
AUMC 0-inf_obs [6, 12]: 10.68 ng/ml * h^2 and 2.586 ng/ml * h^2 and 76.05 ng/ml * h^2 and 97.48 ng/ml * h^2
Cl/F_obs [6, 12]: 2.866 (mg/kg)/(ng/ml)/h and 2.938 (mg/kg)/(ng/ml)/h and 1.083 (mg/kg)/(ng/ml)/h and 0.8908 (mg/kg)/(ng/ml)/h
Cmax [6, 12]: 1.3 ng/mL and 3.37 ng/mL and 1.27 ng/mL and 6.62 ng/mL
Lambda_z [6, 12]: 0.3303 h⁻¹ and 1.518 h⁻¹ and 0.1231 h⁻¹ and 0.1201 h⁻¹
MRT 0-inf_obs [6, 12]: 3.06 h and 0.7598 h and 8.238 h and 8.683 h
Tmax [6, 12]: 0.25 h (2×) and 0.08 h (2×)
Vz/F_obs [6, 12]: 8.676 (mg/kg)/(ng/ml) and 1.935 (mg/kg)/(ng/ml) and 8.802 (mg/kg)/(ng/ml) and 7.417 (mg/kg)/(ng/ml)
t1/2 [6, 12]: 2.099 h and 0.4565 h and 5.632 h and 5.771 h
AUC 0-t [6, 13]: 4.949 ng·h/mL
Cmax [6, 13]: 3.76 ng/mL
Tlag [6, 13]: 0 h
Tmax [6, 13]: 1.5 h
AUC 0-t [6, 14]: 4.9 ± 2.6 ng·h/mL
Cmax [6, 14]: 3.8 ± 0.1 ng/mL
Tlag [6, 14]: 0 ± 0 h
Tmax [6, 14]: 1.5 ± 0.7 h
Tlag ([6]; rat, dosed as prodrug, 10 mg/kg equivalent of Base Structure, analyte Prodrug, individual animals): 0 h
AUC 0-t [6, 15]: 6.8 ng·h/mL and 3.099 ng·h/mL
Cmax [6, 15]: 3.84 ng/mL and 3.68 ng/mL
Tmax [6, 15]: 2 h and 1 h
Abs. Quotient [3]: 0.54
Caco-2 Cells Permeability Recovery Rate [3, 7]: 90%
Caco-2 Cells Permeability Recovery Rate ([3]; −GF120918, 10 μM compound): 48%
